Data as given in patent US6989158B1, “Gold-containing chemotherapeutic agents” (The Curators of the University of Missouri, priority 1999, dated 2006).

Experiments:
[1] = test system: interperitoneal P388 leukemia; conditions: in vivo; cited from earlier work
[2] = Deaths of tumor bearing mice at larger doses; format: in vivo; conditions: doses significantly larger than in the table (20–25 μg/kg)
[3] = test system: cells derived from human colon carcinoma; assay: in vitro tumor growth suppression, cells derived from human colon carcinoma; format: cell-based; conditions: specific human cancer cell lines
Excerpt: When the non-radioactive analogue of the gold complex of THP [(Au(THP)4)]

[4] = test system: HCT-15 cells; assay: Histogram (cell cycle) studies; format: cell-based; conditions: 200 or 40 μg/ml, two days incubation
Procedure: Histogram studies were carried out using HCT-15 cells. In the enclosed figure that summarize histogram results the cells are numbered as follows: HCT-80 is the control; HCT-81 refers to a sample with 200 μg/ml of the gold compound; HCT-82 refers to a sample with 40 μg/ml of gold compound.
HCT-15 cells were incubated in 5% CO2 incubator for two days. Then the cells were harvested and analyzed using fluorescent techniques. […] This finding is in sharp contrast to he cytotoxic side effects of cisplatin which is known to cause disassociation of many phases. Additionally, most agents which are cytotoxic, block S or M+G2 phase after culturing for two days. The mode of cell suppression via G1 phase elongation, as observed for the gold compound, therefore functions differently.

[5] = test system: Meth/A cells; assay: In vivo study, survival of Meth/A tumor bearing mice; parameters: species or system Balb/C mice
[6] = Side effects in mice models; format: in vivo; conditions: preliminary findings
[7] = test system: solid tumor models; conditions: in vivo; cited from earlier work
[8] = test system: peritoneal cancer cells; conditions: in vivo; cited from earlier work
[9] = in vivo; cited from earlier work

## CC[PH](CC)(CC)[Au][S][C@@H]1O[C@H](COC(C)=O)[C@@H](OC(C)=O)[C@H](OC(C)=O)[C@H]1OC(C)=O [Auranofin, (2,3,4,6-tetra-O-aceytl-1-thio-β-D-glucopyranosato-S)-(triethylphosphine) gold(I)]
[1]
  activity against interperitoneal P388 leukemia: active

## N.N.[Cl][Pt][Cl] [Cisplatin, cisplatin]
[2]
  deaths of tumor bearing mice: resulted in the death of animals

## OCP(CO)CO.OCP(CO)CO.OCP(CO)CO.OCP(CO)CO.[Au+].[Cl-] [[Au(THP)4]Cl]
[3]
  tumor cell suppression: remarkable activity in suppressing tumor growth
[2]
  deaths of tumor bearing mice: did not result in deaths of tumor bearing mice
[4]
  effect on G1 phase of the cell cycle: elongates G1 phase
[5]
  survival of tumor bearing mice: remarkable survival of tumor bearing mice
[6]
  toxic side effects: no toxic cardiovascular or naphrotoxic side effects

## [Au+].[Cl-].c1ccc(P(CCP(c2ccccc2)c2ccccc2)c2ccccc2)cc1.c1ccc(P(CCP(c2ccccc2)c2ccccc2)c2ccccc2)cc1 [[Au(dppe)2]Cl]
[7]
  activity against solid tumor models: only slightly active
[8]
  activity against peritoneal cancer cells: marked activity
[9]
  toxicity in preclinical toxicology studies: cardiotoxicity
